# Laboratory results as given in patent US9302999B2, “Substituted triazoles as herbicides” (E. I. DU PONT DE NEMOURS AND COMPANY, priority 2012, dated 2016).
# Columns and labels:
# Format in all cases: in vivo
# [1] = system: woolly cupgrass (Eriochloa villosa); assay: Test C pre-/postemergence: woolly cupgrass
# How it was run: (§1)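 Preemergence on seeds in loam/sand, postemergence on 2–18 cm (1–4-leaf) plants in peat-based medium; compounds in non-phytotoxic solvent with surfactant. After 13–15 days in greenhouse, visual rating versus controls, 0 (no effect) to 100 (complete control).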
# [2] = system: cocklebur (common cocklebur, Xanthium strumarium); assay: Test C pre-/postemergence: cocklebur
# How it was run: as §1
# [3] = system: canarygrass (Phalaris minor); assay: Test C postemergence: canarygrass
# How it was run: (§2)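 Visual 0–100 injury score vs untreated controls (0 none, 100 complete control), taken 13–15 d after treatment. Postemergence spray on potted plants, 2–18 cm, 1–4 leaves; greenhouse.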
# [4] = system: deadnettle (henbit deadnettle, Lamium amplexicaule); assay: Test C postemergence: deadnettle
# How it was run: as §2
# [5] = system: goosegrass (Eleusine indica); assay: Test C pre-/postemergence: goosegrass
# How it was run: as §1
# [6] = system: barley (winter barley, Hordeum vulgare); assay: Test C postemergence: barley
# How it was run: as §2
# [7] = system: windgrass (Apera spica-venti); assay: Test C postemergence: windgrass
# How it was run: as §2
# [8] = system: bromegrass, downy (downy bromegrass, Bromus tectorum); assay: Test C pre-/postemergence: bromegrass, downy
# How it was run: as §1
# [9] = system: foxtail, green (green foxtail, Setaria viridis); assay: Test C pre-/postemergence: foxtail, green
# How it was run: as §1
# [10] = system: nightshade (eastern black nightshade, Solanum ptycanthum); assay: Test C pre-/postemergence: nightshade; conditions: Preemergence
# How it was run: as §1
# [11] = Postemergence, 31 g ai/ha, scale 0 to 100 (0 no effect, 100 complete control)
# [12] = Postemergence, 62 g ai/ha, scale 0 to 100 (0 no effect, 100 complete control)
# [13] = Postemergence, 125 g ai/ha, scale 0 to 100, 0 no effect, 100 complete control
# [14] = Postemergence, 250 g ai/ha, scale 0 to 100
# [15] = Preemergence, 31 g ai/ha, scale of 0 to 100, 0 is no effect, 100 is complete control
# [16] = Preemergence, 62 g ai/ha, scale of 0 to 100, 0 is no effect, 100 is complete control
# [17] = Preemergence, 125 g ai/ha, scale 0 to 100, 0 no effect, 100 complete control
# [18] = Preemergence, 250 g ai/ha, scale 0 to 100, 0 no effect, 100 complete control
# [19] = Preemergence, 62 g ai/ha, scale 0 to 100, 0 no effect, 100 complete control
# [20] = 31 g ai/ha, scale 0 to 100 (0 no effect, 100 complete control)
# [21] = 62 g ai/ha, scale 0 to 100 (0 no effect, 100 complete control)
# [22] = 125 g ai/ha, scale 0 to 100, 0 no effect, 100 complete control
# [23] = 31 g ai/ha, scale of 0 to 100, 0 is no effect, 100 is complete control
# [24] = 62 g ai/ha, scale of 0 to 100, 0 is no effect, 100 is complete control
# [25] = 250 g ai/ha, scale 0 to 100, 0 no effect, 100 complete control
compound,measurement,setting,value
Cc1nn(-c2ccc(C(F)(F)F)cc2)nc1Oc1ccnc(C(F)(F)F)c1 [Compound 120],"Plant response rating, Cupgrass, Woolly",[1]; [11],10
same,"Plant response rating, Cupgrass, Woolly",[1]; [12],10
same,"Plant response rating, Cupgrass, Woolly",[1]; [13],40
same,"Plant response rating, Cupgrass, Woolly",[1]; [14],45
same,"Plant response rating, Cupgrass, Woolly",[1]; [15],90
same,"Plant response rating, Cupgrass, Woolly",[1]; [16],95
same,"Plant response rating, Cupgrass, Woolly",[1]; [17],98
same,"Plant response rating, Cupgrass, Woolly",[1]; [18],98
same,"Plant response rating, Cocklebur",[2]; [11],45
same,"Plant response rating, Cocklebur",[2]; [12],50
same,"Plant response rating, Cocklebur",[2]; [13],65
same,"Plant response rating, Cocklebur",[2]; [14],65
same,"Plant response rating, Cocklebur",[2]; [15],0
same,"Plant response rating, Cocklebur",[2]; [19],0
same,"Plant response rating, Cocklebur",[2]; [18],5
same,"Plant response rating, Canarygrass",[3]; [20],25
same,"Plant response rating, Canarygrass",[3]; [21],35
same,"Plant response rating, Canarygrass",[3]; [22],60
same,"Plant response rating, Canarygrass","[3]; 250 g ai/ha, scale 0 to 100",90
same,"Plant response rating, Deadnettle",[4]; [20],100
same,"Plant response rating, Deadnettle",[4]; [21],100
same,"Plant response rating, Deadnettle",[4]; [22],100
same,"Plant response rating, Deadnettle","[4]; 250 g ai/ha, scale 0 to 100",100
same,"Plant response rating, Goosegrass",[5]; [11],5
same,"Plant response rating, Goosegrass",[5]; [12],5
same,"Plant response rating, Goosegrass",[5]; [13],10
same,"Plant response rating, Goosegrass",[5]; [14],45
same,"Plant response rating, Goosegrass",[5]; [15],98
same,"Plant response rating, Goosegrass",[5]; [16],98
same,"Plant response rating, Goosegrass",[5]; [17],98
same,"Plant response rating, Goosegrass",[5]; [18],98
same,"Plant response rating, Barley",[6]; [20],20
same,"Plant response rating, Barley",[6]; [21],30
same,"Plant response rating, Barley",[6]; [22],40
same,"Plant response rating, Barley","[6]; 250 g ai/ha, scale 0 to 100",55
same,"Plant response rating, Windgrass",[7]; [20],50
same,"Plant response rating, Windgrass",[7]; [21],55
same,"Plant response rating, Windgrass",[7]; [22],90
same,"Plant response rating, Bromegrass, Downy",[8]; [11],15
same,"Plant response rating, Bromegrass, Downy",[8]; [12],15
same,"Plant response rating, Bromegrass, Downy",[8]; [13],30
same,"Plant response rating, Bromegrass, Downy",[8]; [15],45
same,"Plant response rating, Bromegrass, Downy",[8]; [19],85
same,"Plant response rating, Bromegrass, Downy",[8]; [17],90
same,"Plant response rating, Bromegrass, Downy",[8]; [18],90
same,"Plant response rating, Foxtail, Green",[9]; [11],15
same,"Plant response rating, Foxtail, Green",[9]; [12],85
same,"Plant response rating, Foxtail, Green",[9]; [13],100
same,"Plant response rating, Foxtail, Green",[9]; [14],100
same,"Plant response rating, Foxtail, Green",[9]; [15],90
same,"Plant response rating, Foxtail, Green",[9]; [16],90
same,"Plant response rating, Foxtail, Green",[9]; [17],90
same,"Plant response rating, Foxtail, Green",[9]; [18],90
same,"Plant response rating, Nightshade",[10]; [23],95
same,"Plant response rating, Nightshade",[10]; [24],95
same,"Plant response rating, Nightshade",[10]; [22],95
same,"Plant response rating, Nightshade",[10]; [25],95
COc1nn(-c2ccc(C(F)(F)F)cc2)nc1Cc1ccnc(C(F)F)c1 [Compound 138],"Plant response rating, Cupgrass, Woolly",[1]; [11],50
same,"Plant response rating, Cupgrass, Woolly",[1]; [12],55
same,"Plant response rating, Cupgrass, Woolly",[1]; [13],55
same,"Plant response rating, Cupgrass, Woolly",[1]; [14],85
same,"Plant response rating, Cupgrass, Woolly",[1]; [15],60
same,"Plant response rating, Cupgrass, Woolly",[1]; [16],90
same,"Plant response rating, Cupgrass, Woolly",[1]; [17],95
same,"Plant response rating, Cupgrass, Woolly",[1]; [18],100
same,"Plant response rating, Cocklebur",[2]; [11],65
same,"Plant response rating, Cocklebur",[2]; [12],70
same,"Plant response rating, Cocklebur",[2]; [13],85
same,"Plant response rating, Cocklebur",[2]; [14],85
same,"Plant response rating, Cocklebur",[2]; [15],5
same,"Plant response rating, Cocklebur",[2]; [16],5
same,"Plant response rating, Cocklebur",[2]; [17],15
same,"Plant response rating, Cocklebur",[2]; [18],15
same,"Plant response rating, Canarygrass",[3]; [20],30
same,"Plant response rating, Canarygrass",[3]; [21],55
same,"Plant response rating, Canarygrass",[3]; [22],70
same,"Plant response rating, Canarygrass","[3]; 250 g ai/ha, scale 0 to 100",90
same,"Plant response rating, Deadnettle",[4]; [20],98
same,"Plant response rating, Deadnettle",[4]; [21],100
same,"Plant response rating, Deadnettle",[4]; [22],100
same,"Plant response rating, Deadnettle","[4]; 250 g ai/ha, scale 0 to 100",100
same,"Plant response rating, Goosegrass",[5]; [11],5
same,"Plant response rating, Goosegrass",[5]; [12],25
same,"Plant response rating, Goosegrass",[5]; [13],50
same,"Plant response rating, Goosegrass",[5]; [14],80
same,"Plant response rating, Goosegrass",[5]; [15],100
same,"Plant response rating, Goosegrass",[5]; [16],100
same,"Plant response rating, Goosegrass",[5]; [17],100
same,"Plant response rating, Goosegrass",[5]; [18],100
same,"Plant response rating, Barley",[6]; [20],10
same,"Plant response rating, Barley",[6]; [21],30
same,"Plant response rating, Barley",[6]; [22],35
same,"Plant response rating, Barley","[6]; 250 g ai/ha, scale 0 to 100",60
same,"Plant response rating, Windgrass",[7]; [20],50
same,"Plant response rating, Windgrass",[7]; [21],50
same,"Plant response rating, Windgrass",[7]; [22],55
same,"Plant response rating, Windgrass","[7]; 250 g ai/ha, scale 0 to 100",80
same,"Plant response rating, Bromegrass, Downy",[8]; [11],40
same,"Plant response rating, Bromegrass, Downy",[8]; [12],45
same,"Plant response rating, Bromegrass, Downy",[8]; [13],50
same,"Plant response rating, Bromegrass, Downy",[8]; [14],65
same,"Plant response rating, Bromegrass, Downy",[8]; [15],10
same,"Plant response rating, Bromegrass, Downy",[8]; [16],30
same,"Plant response rating, Bromegrass, Downy",[8]; [17],60
same,"Plant response rating, Bromegrass, Downy",[8]; [18],80
same,"Plant response rating, Foxtail, Green",[9]; [11],35
same,"Plant response rating, Foxtail, Green",[9]; [12],85
same,"Plant response rating, Foxtail, Green",[9]; [13],90
same,"Plant response rating, Foxtail, Green",[9]; [14],90
same,"Plant response rating, Foxtail, Green",[9]; [15],90
same,"Plant response rating, Foxtail, Green",[9]; [16],95
same,"Plant response rating, Foxtail, Green",[9]; [17],95
same,"Plant response rating, Foxtail, Green",[9]; [18],95
same,"Plant response rating, Nightshade",[10]; [23],90
same,"Plant response rating, Nightshade",[10]; [24],95
same,"Plant response rating, Nightshade",[10]; [22],98
same,"Plant response rating, Nightshade",[10]; [25],98
COc1nn(-c2cccc(F)c2)nc1Cc1ccnc(C(F)(F)F)c1 [Compound 139],"Plant response rating, Cupgrass, Woolly",[1]; [11],15
same,"Plant response rating, Cupgrass, Woolly",[1]; [12],30
same,"Plant response rating, Cupgrass, Woolly",[1]; [13],50
same,"Plant response rating, Cupgrass, Woolly",[1]; [15],30
same,"Plant response rating, Cupgrass, Woolly",[1]; [16],40
same,"Plant response rating, Cupgrass, Woolly",[1]; [17],75
same,"Plant response rating, Cupgrass, Woolly",[1]; [18],90
same,"Plant response rating, Cocklebur",[2]; [16],0
same,"Plant response rating, Cocklebur",[2]; [17],0
same,"Plant response rating, Cocklebur",[2]; [18],5
same,"Plant response rating, Canarygrass",[3]; [20],40
same,"Plant response rating, Canarygrass",[3]; [21],45
same,"Plant response rating, Canarygrass",[3]; [22],60
same,"Plant response rating, Canarygrass","[3]; 250 g ai/ha, scale 0 to 100",80
same,"Plant response rating, Deadnettle",[4]; [20],95
same,"Plant response rating, Deadnettle",[4]; [21],95
same,"Plant response rating, Deadnettle",[4]; [22],98
same,"Plant response rating, Deadnettle","[4]; 250 g ai/ha, scale 0 to 100",100
same,"Plant response rating, Goosegrass",[5]; [11],15
same,"Plant response rating, Goosegrass",[5]; [12],40
same,"Plant response rating, Goosegrass",[5]; [13],60
same,"Plant response rating, Goosegrass",[5]; [14],80
same,"Plant response rating, Goosegrass",[5]; [15],98
same,"Plant response rating, Goosegrass",[5]; [16],100
same,"Plant response rating, Goosegrass",[5]; [17],100
same,"Plant response rating, Goosegrass",[5]; [18],100
same,"Plant response rating, Barley",[6]; [20],5
same,"Plant response rating, Barley",[6]; [21],10
same,"Plant response rating, Barley",[6]; [22],35
same,"Plant response rating, Barley","[6]; 250 g ai/ha, scale 0 to 100",40
same,"Plant response rating, Windgrass",[7]; [20],50
same,"Plant response rating, Windgrass",[7]; [21],70
same,"Plant response rating, Windgrass",[7]; [22],80
same,"Plant response rating, Bromegrass, Downy",[8]; [11],5
same,"Plant response rating, Bromegrass, Downy",[8]; [12],10
same,"Plant response rating, Bromegrass, Downy",[8]; [13],15
same,"Plant response rating, Bromegrass, Downy",[8]; [14],30
same,"Plant response rating, Bromegrass, Downy",[8]; [15],0
same,"Plant response rating, Bromegrass, Downy",[8]; [16],20
same,"Plant response rating, Bromegrass, Downy",[8]; [18],85
same,"Plant response rating, Foxtail, Green",[9]; [11],95
same,"Plant response rating, Foxtail, Green",[9]; [12],95
same,"Plant response rating, Foxtail, Green",[9]; [13],100
same,"Plant response rating, Foxtail, Green",[9]; [14],100
same,"Plant response rating, Foxtail, Green",[9]; [15],90
same,"Plant response rating, Foxtail, Green",[9]; [16],90
same,"Plant response rating, Foxtail, Green",[9]; [18],90
same,"Plant response rating, Nightshade",[10]; [24],75
same,"Plant response rating, Nightshade",[10]; [22],85
same,"Plant response rating, Nightshade",[10]; [25],98
